Test results taken from PMC10663540, “Structure-based discovery of dual pathway inhibitors for SARS-CoV-2 entry” (Nature Communications, 2023).
Where “and” joins values, the source holds several entries; their conditions need not be identical. Identical values can stand only once. Like-named read-outs stand apart in the source and are kept apart here.

Assays:
[1] = tested on: SARS-CoV-2-S pseudotyped virus Omicron BA.4/BA.5; experiment: microbe, parasite or virus in culture; type: cell-based
[2] = tested on: SARS-CoV-2-S pseudotyped virus Omicron BA.2.12.1; experiment: microbe, parasite or virus in culture; type: cell-based
human CTSB = target: T1, human CTSB (Homo sapiens, UniProt P07858); experiment: biochemical
T1 construct: […]; made in house

Calu-3 cells = conditions: rep1-rep3
in vitro = conditions: human
[3] = tested on: SARS-CoV-2-S pseudotyped virus Omicron BA.2; experiment: microbe, parasite or virus in culture; type: cell-based
[4] = Severe acute respiratory syndrome coronavirus 2, Huh-7, read-out: Antiviral efficacy EC50 (95% CI)
[5] = Severe acute respiratory syndrome coronavirus 2, Huh-7, 120 h, 212-148 20 μM, Fig. 5d

SMILES: NC(N)=Nc1ccc(C(=O)OCCN2CCN(C(=O)N[C@@H](Cc3ccccc3)C(=O)N[C@H](/C=C/S(=O)(=O)c3ccccc3)CCc3ccccc3)CC2)cc1 [212-148]
- Inhibition: BA.4.5/Huh-7 ([1]; 212-148 2e-5 μM, Fig. 5d): 20.50% and 13.32% and 20.61%
- Inhibition: BA.4.5/Huh-7 ([1]; 212-148 0.0002 μM, Fig. 5d): 32.55% and 30.98%
- Inhibition: BA.4.5/Huh-7 ([1]; 212-148 0.002 μM, Fig. 5d): 62.17% and 52.89%
- Inhibition: BA.4.5/Huh-7 ([1]; 212-148 0.02 μM, Fig. 5d): 82.60% and 83.49%
- Inhibition: BA.4.5/Huh-7 ([1]; 212-148 0.2 μM, Fig. 5d): 89.43% and 91.48%
- Inhibition: BA.4.5/Huh-7 ([1]; 212-148 2 μM, Fig. 5d): 89.92% and 91.92%
- Inhibition: BA.4.5/Huh-7 ([1]; 212-148 20 μM, Fig. 5d): 95.01% and 96.39%
- inhibition at 0.0002 µM ([1]; Severe acute respiratory syndrome coronavirus 2, Huh-7, 120 h, 212-148 0.0002 μM, Fig. 5d, read-out: Inhibition: BA.4.5/Huh-7): 43.8%
- inhibition at 0.002 µM ([1]; Severe acute respiratory syndrome coronavirus 2, Huh-7, 120 h, 212-148 0.002 μM, Fig. 5d, read-out: Inhibition: BA.4.5/Huh-7): 63.5%
- inhibition at 0.02 µM ([1]; Severe acute respiratory syndrome coronavirus 2, Huh-7, 120 h, 212-148 0.02 μM, Fig. 5d, read-out: Inhibition: BA.4.5/Huh-7): 84.4%
- inhibition at 0.2 µM ([1]; Severe acute respiratory syndrome coronavirus 2, Huh-7, 120 h, 212-148 0.2 μM, Fig. 5d, read-out: Inhibition: BA.4.5/Huh-7): 86.9%
- inhibition at 2 µM ([1]; Severe acute respiratory syndrome coronavirus 2, Huh-7, 120 h, 212-148 2 μM, Fig. 5d, read-out: Inhibition: BA.4.5/Huh-7): 86.8%
- inhibition at 20 µM ([1]; Severe acute respiratory syndrome coronavirus 2, Huh-7, 120 h, 212-148 20 μM, Fig. 5d, read-out: Inhibition: BA.4.5/Huh-7): 92.5%
- EC50 [1, 4]: 0.4 nM
- Inhibition: BA.2.12.1/Huh-7 ([2]; 212-148 0.0002 μM, Fig. 5d): 25.45% and 41.55%
- Inhibition: BA.2.12.1/Huh-7 ([2]; 212-148 0.002 μM, Fig. 5d): 72.96% and 74.23%
- Inhibition: BA.2.12.1/Huh-7 ([2]; 212-148 0.02 μM, Fig. 5d): 77.85% and 80.42%
- Inhibition: BA.2.12.1/Huh-7 ([2]; 212-148 0.2 μM, Fig. 5d): 82.33% and 85.32%
- Inhibition: BA.2.12.1/Huh-7 ([2]; 212-148 2 μM, Fig. 5d): 85.90% and 86.81%
- Inhibition: BA.2.12.1/Huh-7 ([2]; 212-148 20 μM, Fig. 5d): 92.77% and 92.47%
- inhibition at 0.0002 µM ([2]; Severe acute respiratory syndrome coronavirus 2, Huh-7, 120 h, 212-148 0.0002 μM, Fig. 5d): 26.2%
- inhibition at 0.002 µM ([2]; Severe acute respiratory syndrome coronavirus 2, Huh-7, 120 h, 212-148 0.002 μM, Fig. 5d): 70.2%
- inhibition at 0.02 µM ([2]; Severe acute respiratory syndrome coronavirus 2, Huh-7, 120 h, 212-148 0.02 μM, Fig. 5d): 75.2%
- inhibition at 0.2 µM ([2]; Severe acute respiratory syndrome coronavirus 2, Huh-7, 120 h, 212-148 0.2 μM, Fig. 5d): 82.3%
- inhibition at 2 µM ([2]; Severe acute respiratory syndrome coronavirus 2, Huh-7, 120 h, 212-148 2 μM, Fig. 5d): 86.3%
- inhibition at 20 µM [2, 5]: 91.6%
- EC50 [2, 4]: 0.4 nM
- Inhibition: CTSB (human CTSB; 212-148 0.12207 nM, Fig. 5c): 8.76% and 9.57% and 12.06%
- inhibition at 0.00012207 µM (human CTSB; 212-148 0.12207 nM, Fig. 5c): 9.32%
- Inhibition: CTSB (human CTSB; 212-148 0.976562 nM, Fig. 5c): 5.21% and 6.50% and 2.50% and 12.34%
- Inhibition: CTSB (human CTSB; 212-148 1.95312 nM, Fig. 5c): 10.95% and 10.99% and 12.44%
- inhibition at 0.00195312 µM (human CTSB; 212-148 1.95312 nM, Fig. 5c): 20.7%
- Inhibition: CTSB (human CTSB; 212-148 7.8125 nM, Fig. 5c): 6.62% and 15.92% and 9.45% and 14.93%
- Inhibition: CTSB (human CTSB; 212-148 15.625 nM, Fig. 5c): 29.27% and 18.56% and 15.75%
- inhibition at 0.015625 µM (human CTSB; 212-148 15.625 nM, Fig. 5c): 20.2%
- Inhibition: CTSB (human CTSB; 212-148 31.25 nM, Fig. 5c): 38.89% and 26.87% and 33.63%
- inhibition at 0.03125 µM (human CTSB; 212-148 31.25 nM, Fig. 5c): 31.5%
- Inhibition: CTSB (human CTSB; 212-148 62.5 nM, Fig. 5c): 49.58% and 58.40% and 54.67%
- inhibition at 0.0625 µM (human CTSB; 212-148 62.5 nM, Fig. 5c): 52.1%
- Inhibition: CTSB (human CTSB; 212-148 125 nM, Fig. 5c): 77.49% and 76.59% and 75.86%
- inhibition at 0.125 µM (human CTSB; 212-148 125 nM, Fig. 5c): 76.8%
- Inhibition: CTSB (human CTSB; 212-148 250 nM, Fig. 5c): 92.13% and 95.19% and 101.10%
- inhibition at 0.25 µM (human CTSB; 212-148 250 nM, Fig. 5c): 95.4%
- Inhibition: CTSB (human CTSB; 212-148 500 nM, Fig. 5c): 95.97% and 101.09% and 103.70%
- inhibition at 0.5 µM (human CTSB; 212-148 500 nM, Fig. 5c): 101%
- Inhibition: CTSB (human CTSB; 212-148 1000 nM, Fig. 5c): 100.47% and 101.20% and 101.53%
- inhibition at 1 µM (human CTSB; 212-148 1000 nM, Fig. 5c): 98.8%
- Inhibition: CTSB (human CTSB; 212-148 2000 nM, Fig. 5c): 98.63% and 99.08% and 103.05%
- inhibition at 2 µM (human CTSB; 212-148 2000 nM, Fig. 5c): 102%
- IC50 (human CTSB; substrate Cbz-Phe-Arg-AMC, pH 5.5, mean ± SD, four replicates): 64.1 nM
- content remaining (LC-MS) (after two days in the medium that contains FBS, 125 μM): more than 50%
- stability compared (in words) (same conditions as cell assay media): more stable than nafamostat
- Cytotoxicity (Calu-3 cells; 0.15 μM): 2.30% and 2.49% and 2.76%
- Cytotoxicity (Calu-3 cells; 0.46 μM): 5.33% and 5.48% and 5.69%
- Cytotoxicity (Calu-3 cells; 4.1 μM): -1.17% and -0.96% and -0.67%
- Cytotoxicity (Calu-3 cells; 12.3 μM): 0.51% and 0.76% and 1.02%
- Cytotoxicity (Calu-3 cells; 111.1 μM): -1.18% and -0.95% and -0.65%
- Cytotoxicity (Calu-3 cells; 333.3 μM): 32.20% and 32.35% and 32.61%
- Cytotoxicity (Calu-3 cells; 1000 μM): 84.78% and 84.85% and 84.92%
- CC50 (in vitro): 347000 nM
- Inhibition: BA.2/Huh-7 ([3]; 212-148 0.00128 μM, Fig. 5d): 25.89% and 19.49%
- Inhibition: BA.2/Huh-7 ([3]; 212-148 0.8 μM, Fig. 5d): 91.14% and 94.17%
- Inhibition: BA.2/Huh-7 ([3]; 212-148 4 μM, Fig. 5d): 97.31% and 97.73%
- Inhibition: BA.2/Huh-7 ([3]; 212-148 20 μM, Fig. 5d): 84.53% and 89.27%
- inhibition at 0.00128 µM ([3]; Severe acute respiratory syndrome coronavirus 2, Huh-7, 120 h, 212-148 0.00128 μM, Fig. 5d): 38.3%
- inhibition at 0.8 µM ([3]; Severe acute respiratory syndrome coronavirus 2, Huh-7, 120 h, 212-148 0.8 μM, Fig. 5d): 99.7%
- inhibition at 4 µM ([3]; Severe acute respiratory syndrome coronavirus 2, Huh-7, 120 h, 212-148 4 μM, Fig. 5d): 83.7%
- inhibition at 20 µM [3, 5]: 97.9%
- EC50 [3, 4]: 5.7 nM
